Assay results: ChEMBL document CHEMBL4765227, “Hit to lead optimization of a series of N-[4-(1,3-benzothiazol-2-yl)phenyl]acetamides as monoacylglycerol lipase inhibitors with potential anticancer activity” (Eur J Med Chem, 2016)

Experiments:
Type in all cases: functional
Settings in all cases: read-out: GI
[1] = system: OVCAR-3; test: Growth inhibition of human OVCAR-3 cells at 10 uM incubated for 48 hrs by sulforhodamine B assay relative to control
[2] = system: SR; test: Growth inhibition of human SR cells at 10 uM incubated for 48 hrs by sulforhodamine B assay relative to control
[3] = system: OVCAR-8; test: Growth inhibition of human OVCAR-8 cells at 10 uM incubated for 48 hrs by sulforhodamine B assay relative to control
[4] = system: HCT-15; test: Growth inhibition of human HCT-15 cells at 10 uM incubated for 48 hrs by sulforhodamine B assay relative to control
[5] = system: ACHN; test: Growth inhibition of human ACHN cells at 10 uM incubated for 48 hrs by sulforhodamine B assay relative to control
[6] = system: HOP-92; test: Growth inhibition of human HOP-92 cells at 10 uM incubated for 48 hrs by sulforhodamine B assay relative to control
[7] = system: SN12C; test: Growth inhibition of human SN12C cells at 10 uM incubated for 48 hrs by sulforhodamine B assay relative to control
[8] = system: RXF 393; test: Growth inhibition of human RXF 393 cells at 10 uM incubated for 48 hrs by sulforhodamine B assay relative to control
[9] = system: Malme-3M; test: Growth inhibition of human Malme-3M cells at 10 uM incubated for 48 hrs by sulforhodamine B assay relative to control
[10] = system: SNB-75; test: Growth inhibition of human SNB-75 cells at 10 uM incubated for 48 hrs by sulforhodamine B assay relative to control
[11] = system: OVCAR-4; test: Growth inhibition of human OVCAR-4 cells at 10 uM incubated for 48 hrs by sulforhodamine B assay relative to control
[12] = system: Hs-578T; test: Growth inhibition of human Hs-578T cells at 10 uM incubated for 48 hrs by sulforhodamine B assay relative to control
[13] = system: SW-620; test: Growth inhibition of human SW-620 cells at 10 uM incubated for 48 hrs by sulforhodamine B assay relative to control
[14] = system: NCI-H322M; test: Growth inhibition of human NCI-H322M cells at 10 uM incubated for 48 hrs by sulforhodamine B assay relative to control
[15] = system: DU-145; test: Growth inhibition of human DU-145 cells at 10 uM incubated for 48 hrs by sulforhodamine B assay relative to control
[16] = system: HOP-62; test: Growth inhibition of human HOP-62 cells at 10 uM incubated for 48 hrs by sulforhodamine B assay relative to control
[17] = system: SF-268; test: Growth inhibition of human SF-268 cells at 10 uM incubated for 48 hrs by sulforhodamine B assay relative to control
[18] = system: PC-3; test: Growth inhibition of human PC-3 cells at 10 uM incubated for 48 hrs by sulforhodamine B assay relative to control
[19] = system: CAKI-1; test: Growth inhibition of human CAKI-1 cells at 10 uM incubated for 48 hrs by sulforhodamine B assay relative to control
[20] = system: M14; test: Growth inhibition of human M14 cells at 10 uM incubated for 48 hrs by sulforhodamine B assay relative to control
[21] = system: COLO 205; test: Growth inhibition of human COLO 205 cells at 10 uM incubated for 48 hrs by sulforhodamine B assay relative to control
[22] = system: SF-295; test: Growth inhibition of human SF-295 cells at 10 uM incubated for 48 hrs by sulforhodamine B assay relative to control
[23] = system: NCI-H522; test: Growth inhibition of human NCI-H522 cells at 10 uM incubated for 48 hrs by sulforhodamine B assay relative to control
[24] = system: U-251; test: Growth inhibition of human U-251 cells at 10 uM incubated for 48 hrs by sulforhodamine B assay relative to control
[25] = system: UACC-257; test: Growth inhibition of human UACC-257 cells at 10 uM incubated for 48 hrs by sulforhodamine B assay relative to control
[26] = system: A549; test: Growth inhibition of human A549/ATCC cells at 10 uM incubated for 48 hrs by sulforhodamine B assay relative to control
[27] = system: OVCAR-5; test: Growth inhibition of human OVCAR-5 cells at 10 uM incubated for 48 hrs by sulforhodamine B assay relative to control
[28] = system: NCI/ADR-RES; test: Growth inhibition of human NCI/ADR-RES cells at 10 uM incubated for 48 hrs by sulforhodamine B assay relative to control
[29] = system: HL-60(TB); test: Growth inhibition of human HL-60(TB) cells at 10 uM incubated for 48 hrs by sulforhodamine B assay relative to control
[30] = system: NCI-H23; test: Growth inhibition of human NCI-H23 cells at 10 uM incubated for 48 hrs by sulforhodamine B assay relative to control
[31] = system: HT-29; test: Growth inhibition of human HT-29 cells at 10 uM incubated for 48 hrs by sulforhodamine B assay relative to control
[32] = system: HCT-116; test: Growth inhibition of human HCT-116 cells at 10 uM incubated for 48 hrs by sulforhodamine B assay relative to control
[33] = system: MOLT-4; test: Growth inhibition of human MOLT-4 cells at 10 uM incubated for 48 hrs by sulforhodamine B assay relative to control
[34] = system: UO-31; test: Growth inhibition of human UO-31 cells at 10 uM incubated for 48 hrs by sulforhodamine B assay relative to control
[35] = system: LOX IMVI; test: Growth inhibition of human LOX IMVI cells at 10 uM incubated for 48 hrs by sulforhodamine B assay relative to control
[36] = system: RPMI-8226; test: Growth inhibition of human RPMI-8226 cells at 10 uM incubated for 48 hrs by sulforhodamine B assay relative to control
[37] = system: KM12; test: Growth inhibition of human KM12 cells at 10 uM incubated for 48 hrs by sulforhodamine B assay relative to control
[38] = system: MCF7; test: Growth inhibition of human MCF7 cells at 10 uM incubated for 48 hrs by sulforhodamine B assay relative to control
[39] = system: MDA-MB-231; test: Growth inhibition of human MDA-MB-231 cells at 10 uM incubated for 48 hrs by sulforhodamine B assay relative to control
[40] = system: HCC 2998; test: Growth inhibition of human HCC 2998 cells at 10 uM incubated for 48 hrs by sulforhodamine B assay relative to control
[41] = system: NCI-H226; test: Growth inhibition of human NCI-H226 cells at 10 uM incubated for 48 hrs by sulforhodamine B assay relative to control
[42] = system: MDA-MB-468; test: Growth inhibition of human MDA-MB-468 cells at 10 uM incubated for 48 hrs by sulforhodamine B assay relative to control
[43] = system: 786-0; test: Growth inhibition of human 786-0 cells at 10 uM incubated for 48 hrs by sulforhodamine B assay relative to control
[44] = system: SF-539; test: Growth inhibition of human SF-539 cells at 10 uM incubated for 48 hrs by sulforhodamine B assay relative to control

`O=C(CNc1nnc(-c2ccc(Cl)cc2)o1)Nc1ccc(-c2nc3ccccc3s2)cc1` was tested, and the inhibition of growth at 10 µM [1] was 2.27%, the inhibition of growth at 10 µM [2] was 28.2% and the inhibition of growth at 10 µM [3] was -2.95%. For the same molecule, the inhibition of growth at 10 µM [4] was 10.4%, the inhibition of growth at 10 µM [5] was -12% and the inhibition of growth at 10 µM [6] was 12.1%. It also gave an inhibition of growth at 10 µM [7] of 5.48%, an inhibition of growth at 10 µM [8] of -0.2% and an inhibition of growth at 10 µM [9] of 11.3%. It also gave an inhibition of growth at 10 µM [10] of 14.2%, an inhibition of growth at 10 µM [11] of -3.22% and an inhibition of growth at 10 µM [12] of 3.06%. The inhibition of growth at 10 µM [13] was -9.76%, the inhibition of growth at 10 µM [14] was 4.86% and the inhibition of growth at 10 µM [15] was 1.53%. The inhibition of growth at 10 µM [16] was -6.78%, the inhibition of growth at 10 µM [17] was 22.6% and the inhibition of growth at 10 µM [18] was 11.4%. The inhibition of growth at 10 µM [19] was -0.31%, the inhibition of growth at 10 µM [20] was -1.85% and the inhibition of growth at 10 µM [21] was -4.34%. For the same molecule, the inhibition of growth at 10 µM [22] was -1.52%, the inhibition of growth at 10 µM [23] was 22.9% and the inhibition of growth at 10 µM [24] was 18.4%. It also gave an inhibition of growth at 10 µM [25] of -2.8%, an inhibition of growth at 10 µM [26] of 4.18% and an inhibition of growth at 10 µM [27] of -16.4%. It also gave an inhibition of growth at 10 µM [28] of 1.07%, an inhibition of growth at 10 µM [29] of 6.27% and an inhibition of growth at 10 µM [30] of 11.3%. For the same molecule, the inhibition of growth at 10 µM [31] was 4.3%, the inhibition of growth at 10 µM [32] was 10.2% and the inhibition of growth at 10 µM [33] was 66.8%. It also gave an inhibition of growth at 10 µM [34] of 26.7%, an inhibition of growth at 10 µM [35] of 143% and an inhibition of growth at 10 µM [36] of 4.61%. The inhibition of growth at 10 µM [37] was 2.99%, the inhibition of growth at 10 µM [38] was 65.5% and the inhibition of growth at 10 µM [39] was 1.2%. For the same molecule, the inhibition of growth at 10 µM [40] was 6.46%, the inhibition of growth at 10 µM [41] was 17.1% and the inhibition of growth at 10 µM [42] was 110%. For the same molecule, the inhibition of growth at 10 µM [43] was -1.02% and the inhibition of growth at 10 µM [44] was 2.97%.

In the case of `COc1ccc(NCC(=O)Nc2ccc(-c3nc4ccccc4s3)cc2)cc1`, the inhibition of growth at 10 µM [1] is reported as 3.44%, the inhibition of growth at 10 µM [2] is reported as 15.6% and the inhibition of growth at 10 µM [3] is reported as 4.93%. It also gave an inhibition of growth at 10 µM [4] of 10.1%, an inhibition of growth at 10 µM [5] of -3.5% and an inhibition of growth at 10 µM [6] of 29.1%. The inhibition of growth at 10 µM [7] was 5.87%, the inhibition of growth at 10 µM [8] was -1.89% and the inhibition of growth at 10 µM [9] was -26%. It also gave an inhibition of growth at 10 µM [10] of 25.4%, an inhibition of growth at 10 µM [11] of 12.8% and an inhibition of growth at 10 µM [12] of 2.83%. For the same molecule, the inhibition of growth at 10 µM [13] was -4.02%, the inhibition of growth at 10 µM [14] was 3% and the inhibition of growth at 10 µM [15] was 0.77%. For the same molecule, the inhibition of growth at 10 µM [16] was 14.6%, the inhibition of growth at 10 µM [17] was 10.5% and the inhibition of growth at 10 µM [18] was 12.9%. It also gave an inhibition of growth at 10 µM [19] of -2.81%, an inhibition of growth at 10 µM [20] of 0.16% and an inhibition of growth at 10 µM [21] of -6.9%. The inhibition of growth at 10 µM [22] was 3.2%, the inhibition of growth at 10 µM [23] was 5.02% and the inhibition of growth at 10 µM [24] was 19.1%. The inhibition of growth at 10 µM [25] was -3.88%, the inhibition of growth at 10 µM [26] was 10.5% and the inhibition of growth at 10 µM [27] was 1.84%. For the same molecule, the inhibition of growth at 10 µM [28] was -1.88%, the inhibition of growth at 10 µM [29] was 20.9% and the inhibition of growth at 10 µM [30] was 14.3%. For the same molecule, the inhibition of growth at 10 µM [31] was -8.15%, the inhibition of growth at 10 µM [32] was 11.6% and the inhibition of growth at 10 µM [33] was 33.7%. The inhibition of growth at 10 µM [34] was 28.1%, the inhibition of growth at 10 µM [35] was 8.68% and the inhibition of growth at 10 µM [36] was 13.6%. It also gave an inhibition of growth at 10 µM [37] of 3.03%, an inhibition of growth at 10 µM [38] of 35% and an inhibition of growth at 10 µM [39] of 27.5%. For the same molecule, the inhibition of growth at 10 µM [40] was 3.49%, the inhibition of growth at 10 µM [41] was 5.16% and the inhibition of growth at 10 µM [42] was 5.6%. For the same molecule, the inhibition of growth at 10 µM [43] was 14.8% and the inhibition of growth at 10 µM [44] was 3.41%.
